Reference: patent publication US12590071B2, “Hydrazone derivative in which terminal amine group is substituted with aryl group or heteroaryl group, and use thereof” (KOREA INSTITUTE OF SCIENCE AND TECHNOLOGY, priority 2018, dated 2026)

Key:
[1] = biological target: T1, tau protein (Homo sapiens, UniProt P10636); experiment: Tau protein aggregation inhibition in tau-BiFC cell model; assay type: cell-based; conditions: tau-BiFC cells treated together with Forskolin, 48 hours
T1 construct: expressed in transfected cells
Outline: (§1)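 Tau-BiFC cells co-treated 48 h with Forskolin ([…]) and compound at 0.03–30 μM. BiFC fluorescence quantified by imaging, IC50 by nonlinear regression; cytotoxicity as Hoechst-stained nuclei count relative to Forskolin-only wells (100% survival).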

[2] = test system: Tau-BiFC cells; experiment: Cytotoxicity (cell survival rate) in tau-BiFC cells; conditions: group treated with Forskolin alone = 100%
Outline: as §1

[3] = biological target: T2, CYP1A2 (Homo sapiens, UniProt P05177); experiment: Inhibition of CYP coenzyme activity in human liver microsomes; assay type: in vitro ADME; conditions: compound 10 PM (so in the source); human liver microsomes 0.25 mg/mL; substrate phenacetin; 15 minutes
T2 construct: human liver microsomes (0.25 mg/mL); from tissue; host or cells: human liver microsomes
T2 sequence (P05177 1-516): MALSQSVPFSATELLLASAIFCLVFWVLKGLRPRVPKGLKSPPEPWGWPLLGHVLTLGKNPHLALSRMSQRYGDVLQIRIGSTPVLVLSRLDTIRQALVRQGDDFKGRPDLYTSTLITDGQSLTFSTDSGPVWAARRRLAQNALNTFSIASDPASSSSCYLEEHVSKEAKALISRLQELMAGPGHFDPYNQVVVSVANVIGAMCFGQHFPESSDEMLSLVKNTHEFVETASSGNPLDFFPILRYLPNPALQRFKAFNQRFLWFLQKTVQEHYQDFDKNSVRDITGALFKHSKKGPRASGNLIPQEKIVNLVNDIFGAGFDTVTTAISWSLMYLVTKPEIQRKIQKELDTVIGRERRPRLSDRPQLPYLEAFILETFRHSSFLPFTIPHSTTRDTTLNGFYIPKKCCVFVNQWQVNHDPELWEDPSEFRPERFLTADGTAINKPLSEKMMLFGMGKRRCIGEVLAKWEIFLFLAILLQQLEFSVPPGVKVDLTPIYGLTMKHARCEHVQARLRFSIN
Outline: (§2)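 Human liver microsomes (0.25 mg/mL) in 0.1 M phosphate pH 7.4 with a substrate cocktail (phenacetin 50 μM, diclofenac 10 μM, S-mephenytoin 100 μM, dextromethorphan 5 μM, midazolam 2.5 μM) and compound at 0 or 10 μM. Preincubated 5 min at 37 °C, then 15 min with NADPH system. Metabolites quantified by LC-MS/MS (MRM).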

[4] = biological target: T3, CYP2C19 (Homo sapiens, UniProt P33261); experiment: as above; assay type: in vitro ADME; conditions: compound 10 PM (so in the source); human liver microsomes 0.25 mg/mL; substrate S-mephenytoin; 15 minutes
T3 construct: human liver microsomes (0.25 mg/mL); from tissue; host or cells: human liver microsomes
Outline: as §2

[5] = biological target: T4, CYP2C9 (Homo sapiens, UniProt P11712); experiment: as above; assay type: in vitro ADME; conditions: compound 10 PM (so in the source); human liver microsomes 0.25 mg/mL; substrate diclofenac; 15 minutes
T4 construct: human liver microsomes (0.25 mg/mL); from tissue; host or cells: human liver microsomes
Outline: as §2

[6] = biological target: T5, CYP2D6 (Homo sapiens, UniProt P10635); experiment: as above; assay type: in vitro ADME; conditions: compound 10 PM (so in the source); human liver microsomes 0.25 mg/mL; substrate dextromethorphan; 15 minutes
T5 construct: human liver microsomes (0.25 mg/mL); from tissue; host or cells: human liver microsomes
Outline: as §2

[7] = biological target: T6, CYP3A4 (Homo sapiens, UniProt P08684); experiment: as above; assay type: in vitro ADME; set-up: scale not given here; conditions: compound 10 PM (so in the source); human liver microsomes 0.25 mg/mL; substrate midazolam; 15 minutes
T6 construct: human liver microsomes (0.25 mg/mL); from tissue; host or cells: human liver microsomes
Outline: as §2

[8] = Liver microsomal stability (human); assay type: in vitro ADME; conditions: amount of substrate remaining; 1 μM, 0.25 mg/mL microsomes, 37° C., 30 minutes
Outline: (§3)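 Compound at 1 μM with microsomes (0.25 mg/mL each species) in 0.1 M phosphate buffer pH 7.4, preincubated 5 min at 37 °C, then 30 min at 37 °C after NADPH-generating system addition. Quenched with acetonitrile plus internal standard; remaining substrate measured by LC-MS/MS.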

[9] = Liver microsomal stability (dog); assay type: in vitro ADME; conditions: amount of substrate remaining; 1 μM, 0.25 mg/mL microsomes, 37° C., 30 minutes
Outline: as §3

[10] = Liver microsomal stability (rat); assay type: in vitro ADME; conditions: amount of substrate remaining; 1 μM, 0.25 mg/mL microsomes, 37° C., 30 minutes
Outline: as §3

[11] = Liver microsomal stability (mouse); assay type: in vitro ADME; conditions: amount of substrate remaining; 1 μM, 0.25 mg/mL microsomes, 37° C., 30 minutes
Outline: as §3

T6 sequence (P08684 whole entry): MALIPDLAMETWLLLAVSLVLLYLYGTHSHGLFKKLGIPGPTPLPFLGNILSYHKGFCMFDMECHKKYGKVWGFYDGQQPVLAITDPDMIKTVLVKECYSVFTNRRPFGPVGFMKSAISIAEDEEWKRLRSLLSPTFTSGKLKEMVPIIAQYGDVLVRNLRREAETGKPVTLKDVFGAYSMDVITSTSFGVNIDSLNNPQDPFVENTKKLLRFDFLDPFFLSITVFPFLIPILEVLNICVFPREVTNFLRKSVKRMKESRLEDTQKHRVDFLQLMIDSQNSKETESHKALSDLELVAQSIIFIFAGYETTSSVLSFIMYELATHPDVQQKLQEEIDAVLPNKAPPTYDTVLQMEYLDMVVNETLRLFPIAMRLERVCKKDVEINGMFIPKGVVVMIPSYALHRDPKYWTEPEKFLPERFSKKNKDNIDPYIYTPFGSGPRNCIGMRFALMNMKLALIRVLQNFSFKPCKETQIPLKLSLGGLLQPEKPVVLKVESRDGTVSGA
T5 sequence (P10635 whole entry): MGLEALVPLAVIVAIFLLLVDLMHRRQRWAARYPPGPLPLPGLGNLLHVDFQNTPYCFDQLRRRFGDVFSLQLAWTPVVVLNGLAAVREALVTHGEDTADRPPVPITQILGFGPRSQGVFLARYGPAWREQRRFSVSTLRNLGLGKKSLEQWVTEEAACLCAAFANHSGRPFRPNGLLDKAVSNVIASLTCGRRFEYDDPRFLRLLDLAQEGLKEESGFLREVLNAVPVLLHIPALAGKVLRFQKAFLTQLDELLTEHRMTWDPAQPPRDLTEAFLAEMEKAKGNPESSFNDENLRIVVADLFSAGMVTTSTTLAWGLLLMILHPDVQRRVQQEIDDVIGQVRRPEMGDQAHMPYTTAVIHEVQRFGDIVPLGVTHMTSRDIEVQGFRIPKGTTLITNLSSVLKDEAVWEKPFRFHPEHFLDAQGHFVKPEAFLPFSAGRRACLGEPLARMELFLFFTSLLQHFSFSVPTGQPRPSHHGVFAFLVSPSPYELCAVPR
T3 sequence (P33261 whole entry): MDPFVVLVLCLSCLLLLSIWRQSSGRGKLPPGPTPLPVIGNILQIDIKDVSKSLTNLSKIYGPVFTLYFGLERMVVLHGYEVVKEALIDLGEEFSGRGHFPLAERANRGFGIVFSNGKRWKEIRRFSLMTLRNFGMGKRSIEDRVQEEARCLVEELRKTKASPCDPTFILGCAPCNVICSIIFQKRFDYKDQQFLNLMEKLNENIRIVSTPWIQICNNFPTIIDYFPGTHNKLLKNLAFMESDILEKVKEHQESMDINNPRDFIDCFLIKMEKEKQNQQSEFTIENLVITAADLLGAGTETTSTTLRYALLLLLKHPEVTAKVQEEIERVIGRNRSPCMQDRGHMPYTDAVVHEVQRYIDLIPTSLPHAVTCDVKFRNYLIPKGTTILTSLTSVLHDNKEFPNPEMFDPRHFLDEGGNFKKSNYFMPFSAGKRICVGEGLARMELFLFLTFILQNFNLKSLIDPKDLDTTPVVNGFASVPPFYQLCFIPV
T1 sequence (P10636 2-441 isoform P10636-8 limits assumed): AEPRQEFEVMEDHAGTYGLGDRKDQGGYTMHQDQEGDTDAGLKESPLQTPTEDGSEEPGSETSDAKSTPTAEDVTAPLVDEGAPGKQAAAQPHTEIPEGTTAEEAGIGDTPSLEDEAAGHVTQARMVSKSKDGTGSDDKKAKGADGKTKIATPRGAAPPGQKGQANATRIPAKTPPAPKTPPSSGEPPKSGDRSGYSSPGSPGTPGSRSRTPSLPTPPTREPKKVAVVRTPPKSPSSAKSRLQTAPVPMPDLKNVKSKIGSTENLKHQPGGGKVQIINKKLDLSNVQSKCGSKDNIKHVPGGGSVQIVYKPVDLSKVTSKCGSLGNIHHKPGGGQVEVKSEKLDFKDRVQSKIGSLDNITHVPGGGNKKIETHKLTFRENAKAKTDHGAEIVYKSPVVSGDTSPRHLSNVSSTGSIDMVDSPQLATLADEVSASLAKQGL
T4 sequence (P11712 whole entry): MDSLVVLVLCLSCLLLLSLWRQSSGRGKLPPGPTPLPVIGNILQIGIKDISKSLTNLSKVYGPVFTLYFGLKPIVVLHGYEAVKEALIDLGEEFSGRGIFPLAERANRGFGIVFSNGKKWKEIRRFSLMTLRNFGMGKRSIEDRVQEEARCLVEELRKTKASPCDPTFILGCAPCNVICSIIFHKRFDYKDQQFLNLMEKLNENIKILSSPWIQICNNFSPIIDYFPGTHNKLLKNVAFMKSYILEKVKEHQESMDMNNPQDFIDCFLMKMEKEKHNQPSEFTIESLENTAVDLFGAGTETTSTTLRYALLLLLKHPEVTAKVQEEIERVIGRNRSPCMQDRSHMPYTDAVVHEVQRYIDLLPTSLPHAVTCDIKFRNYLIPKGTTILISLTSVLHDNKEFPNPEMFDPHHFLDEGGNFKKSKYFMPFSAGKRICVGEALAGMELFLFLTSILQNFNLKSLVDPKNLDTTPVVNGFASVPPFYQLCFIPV

SMILES | IC50 [1] [µM] | Cell survival rate (% @ 10 μM) [2] [%] | inhibition effects of CYP coenzyme activity, CYP1A2 [3] | inhibition effects of CYP coenzyme activity, CYP2C19 [4] | inhibition effects of CYP coenzyme activity, CYP2C9 [5] | inhibition effects of CYP coenzyme activity, CYP2D6 [6] | inhibition effects of CYP coenzyme activity, CYP3A4 [7] | liver microsomal stability, Human (%) [8] [%] | liver microsomal stability, Dog (%) [9] [%] | liver microsomal stability, Rat (%) [10] [%] | liver microsomal stability, Mouse (%) [11] [%]
N#CC(C#N)=NNc1ccc2nc(NC(=O)c3cnccn3)sc2c1 [Compound 92, (2-(pyrazine-2-carboxamido)benzo[d]thiazol-6-yl)carbonohydrazonoyl dicyanide] | 0.24 | 119.5 | 64.1 | 90.5 | 46.8 | 99.1 | 85.5 | 74.6 | 74.7 | 72.7 | 51.9
Cc1cncc(-c2nc3ccc(NN=C(C#N)C#N)cc3s2)c1 [Compound 110, (2-(5-methylpyridin-3-yl)benzo[d]thiazol-6-yl)carbonohydrazonoyl dicyanide] | 0.76 | 74.6 | 55 | 51.3 | 60.2 | 70.8 | 55 | 55 | 60.2 | 51.3 | 70.8
CN(C)c1ccc(-c2ccc(NN=C(C#N)C#N)cc2)cc1 [Compound 151, (4′-(dimethylamino)biphenyl-4-yl)carbohydrazonoyl dicyanide] | 0.65 | 69.5 | 94.4 | 85.2 | 83.6 | 94.6 | 94.4 | 94.4 | 83.6 | 85.2 | 94.6
